Literature values, collected in patent US9408814B2, “Modified release dosage form comprising desvenlafaxine or salts thereof” (WOCKHARDT LIMITED, priority 2010, dated 2016).
Read-outs that look alike come from different tables or passages of the source.

Experiments:
[1] = at pH 7.0
[2] = not given; remark: listed apart in the source

SMILES	solubility at gastric pH (gastric pH)	solubility at intestinal pH (intestinal pH)	octanol:aqueous system partition coefficient [1]	pH dependence of solubility (solubility increases at lower pH)	solubility in water (water)	pKa ([2]; dimethylamino group)	pKa ([2]; phenolic group)
CN(C)CC(c1ccc(O)cc1)C1(O)CCCCC1.O=C(O)CCC(=O)O (stereo not shown) [Desvenlafaxine, RS-4-[2-dimethylamino-1-(1-hydroxycyclohexyl)ethyl]phenol]	relatively good solubility	poor solubility					
CN(C)CC(c1ccc(O)cc1)C1(O)CCCCC1 (stereo not shown) [Desvenlafaxine succinate]			0.21	pH dependent	soluble in water	8.34	10.11
